Reference: patent US20130259829A1, “CLIP INHIBITORS AND METHODS OF MODULATING IMMUNE FUNCTION” (The Regents of the University of Colorado, A Body Corporate, priority 2008, published 2013)
No end group written: not given here. *: point of attachment. Biotin = O=C1N[C@H]2[C@H](CS[C@H]2CCCCC(=O)*)N1

How the values were obtained:
B cell surface CLIP = B cell surface CLIP after 2-Deoxyglucose and dichloroacetate (FIG. 4); type: cell-based
[1] = background statement; cited from earlier work
mouse splenic B cells = assay: TLR activation of mouse splenocytes in vitro, ectopic CLIP on B cells (15G4-FITC versus B220); type: cell-based; conditions: for exogenous CLIP expression on activated mouse B cells: treatment in vitro with toll ligand
Source text: Mouse splenocytes or T-depleted splenocytes were red cell depleted using Geys Solution, and cells were counted. For T-depleted B cell preparations, B cells were separated by discontinuous Percoll (Pharmacia LKB Biotechnology, Piscataway, N.J.) gradients (13). Those cells layering at the 1.079/1.085 g/ml interface (1.079<ρ≦1.085) are designated throughout as resting B cells. Cells layering at the BSS/1.066 g/ml interface (ρ≦1.066) are designated as activated. Viable cells from this latter interface were isolated using Lympholyte-M (Cedarlane Laboratories, Ltd., Hornby, Ontario, Canada). Cells from each layer were harvested, washed, and resuspended at 10^7 cells/ml in PBS containing 5% fetal calf serum.
Total splenocytes, from either B6.129, Ii-deficient, or H2M-deficient mice were cultured with LPS for 24, 48, 72, or 96 hours as indicated. Cells were harvested and stained by two-color fluorescence using 15G4-FITC anti-mouse CLIP/I-A^6 versus anti-mouse B220 PE.
Freshly isolated splenocytes, single cell suspensions of lymph node cells, resting (or activated) B cells, or primed B cells were isolated from B6.129, Ii-deficient, or H2M-deficient mice and cultured in 24 well plates in complete RPMI medium, with or without the appropriate Toll ligand, at 10^6 cells/ml. Cells were cultured for 24, 48, 72, 96, or up to 144 hours. Cells were harvested and stained by flow cytometric analysis using either a Beckman Coulter Excel or a Beckman Coulter FC500 flow cytometer. Cells were stained by two-color fluorescence using 15G4-FITC anti-mouse CLIP/I-A^b versus anti-mouse B220 PE. For co-culture experiments (5×10^5) were combined with T cells (5×10^4) in 24 well plates in complete medium, with or without the appropriate antigen. Experiments with 3A9, 2A11 or A6.A2 employed 3 mg/ml tryptic digest of HEL as a source of pre-processed antigen, i.e., peptide. Cultures were incubated overnight at 37° C. in a humidified 5% CO2, 95% air incubator.
(§1) Multi-parameter flow cytometric analysis for the fluorescent detection of ectopic CLIP, mouse B220, human CD19 or CD20, human CLIP, human HLA-DR, and human CLIP or apoptosis were performed using a Beckman Coulter Excel or a Beckman Coulter FC500 flow cytometer (Beckman Coulter, Hialeah, Fla.). Mouse splenic cells were cultured in complete RPMI for the times indicated. Resting, primed, or activated B cells were cultured in the presence of T cells (vide supra). At the end of 16 h of culture, the cells were harvested and washed. Ethidium bromide (detected by red fluorescence) was added immediately before analysis of each tube. The cells were analyzed by first gating using forward vs. side scatter then using increased fluorescence as a measure of detection of the indicated cell surface antigens.

[2] = test system: human B cells from peripheral blood mononuclear cells (PBMC); assay: Human PBMC culture with toll ligands with or without peptides, CLIP on B cells; type: cell-based; conditions: for level of CLIP per B cell / percentage of CLIP+ B cells: PBMC of two donors cultured with R848 for 48 hours
Description: PBMC were prepared from a total of seven adult normal donors, five for examining the effects of TLR binding on the percentage of ectopic CLIP^+ B cells and changes in mean fluorescence intensity of the CLIP staining resulting from TLR stimulation with CpG-ODN, LPS, Pam-3-Cys, and Poly I:C. For these experiments, the cells were cultured at approximately 1×10^6 per ml with each TLR binding ligand added at 5 μg per ml. The other two donors were tissue typed for HLA phenotypes, were cultured with the TLR7/8 agonist CL097 for 48 hours with and without the computationally predicted competitive peptide or the scrambled analogue for 48 hours. For both experiments at the end of the appropriate culture period, cells were harvested and stained for cell surface CLIP using anti-human CLIP-FITC versus MHC class II HLA-DR-PE Cy5, or anti-human CLIP-FITC versus anti-human CD19-PE. Cells were analyzed using either a BD FacsCalibur, for the five samples, or a Coulter FC500 for the two tissue typed samples.
as §1
Because CLIP affinity for MHC class II molecules is allele dependent, the MHCPred (http://www.jenner.ac.uk/MHCPred/) and NetMHC (http://www.cbs.dtu.dk/services/NetMHC/) databases was used to determine binding affinities between CLIP for molecules encoded by either mouse or human MHC alleles. […] For human studies, PBMC were collected from donors, most of whose MHC tissue types (alleles for HLA-DR, DP, DQ, HLA-A, and HLA-B) were identified. The cells were cultured in the presence or absence of the TLR7/8-binding compound R848 (CLO97, Invivogen) for 48 hours. The cells were cultured in the presence or absence of VGV-hB peptide versus a control peptide of equal length (referred to henceforth as VGV-pB, whose binding depends upon the MHC allele/polymorphism of the individual) (FIGS. 13d and 13e). […] Considering polymorphic differences in MHC alleles between the two individuals, the ability of a given peptide to replace CLIP may vary as a function of the polymorphism between the two people. Data are representative of five different experiments performed over several months.

B6.129 (H-2b) mice [3] = assay: CpG-ODN injected B6.129 mice with or without peptide (TLR-induced chronic hyperimmune activation); type: in vivo, mouse
Description: C57Bl6 and B6.129 mice were injected with CpG-oligo-deoxynucleotide (CpG-ODN (25 μg per mouse)). After 24, 72, or 96 hours, animals were humanely killed; spleens and lymph nodes were removed. The spleens and lymph nodes were passed through nylon mesh to recover single cell suspensions, and the cells were counted. Cells were stained as indicated and analyzed flow cytometrically using a Beckman Coulter Excel or Coulter FC500 flow cytometer.
as §1
Cell death was measured either by flow cytometric detection of forward versus side scatter or by DNA fragmentation. DNA fragmentation was quantified by terminal deoxynucleotidyl transferase (TdT; Promega, Madison, Wis.)-mediated fluorescein-12-deoxyuridine triphosphate (FITC-dUTP; Boehinger Mannheim Corporation, Indianapolis, Ind.) addition to the terminal 3′-OH ends of fragmented DNA (TUNEL assay) as previously described (18). Resting B cells (1×10^6) were combined with 1×10^5 T hybridoma cells, with or without antigen, and cultured for 16-17 h. The cultures were harvested and washed twice in PBS-2% FBS at 4° C. Subsequently, cells were incubated for 30 min at 4° C. in PBS-2% FBS […] Cells were washed in PBS and fixed in 1.5% paraformaldehyde in PBS (pH 7.4) for 1 h at 4° C. Cells were thoroughly washed in PBS and were resuspended in 50 μl of a reaction mixture containing the following: 5 units TdT, 0.1-0.2 nM FITC-dUTP and 1 nM each dATP, dCTP, and dGTP in 100 mM cacodylate buffer (pH 6.8) with 1 mM CoCl2 and 0.1 mg/ml BSA. Reactions were incubated for 1 h at 37° C. and stopped by washing with 0.25 M EDTA in Tris buffer (pH 7.4). Cells were then analyzed for two color fluorescence on the FC500.
Using mouse models for quantitative analysis of TLR-induced CHA, B6.129 (H-2^b) mice were injected with CpG-ODN alone or CpG-ODN in combination with VGV-hB. […] Because the binding constant of a peptide is also function of concentration, B6.129 mice were injected with peptide; either VGV-hB or VGV-sB, ranging in dose from 0.25, 2.5, 25, and 50 micrograms of peptide per mouse, (FIGS. 14c and 14d).

B6.129 (H-2b) mice [4] = assay: as above; type: in vivo, mouse; conditions: CpG-ODN alone or with peptide, 48 hours
[5] = test system: human B cell lines, Raji and Daudi; assay: Synthetic peptide binding and competition with CLIP on B cell lines (anti-human CLIP Fitc versus Streptavidin); type: cell-based; conditions: for cell surface bound CLIP (Fitc-Anti-CLIP): biotinylated competing peptide, 50 microMolar
Source text: Based on a computational model comparing the peptide content of TNP mixture and identifying those peptides that would have the likeliest ability to compete for the peptide/antigen binding site for MHC class II (human HLA-DR, DP, and DQ), several peptide candidates were synthesized and examined for activity. The purpose of the study was to determine if synthetic peptides can compete for binding with CLIP peptides as measured with either Fitc anti-human CLIP antibody or, comparatively in the case of biotinylated peptides, with Streptavidin.
Cell Culture Conditions: The Raji and Daudi cell lines were purchased from American Type Culture Collection, were thawed, and grown in RPMI 1640 medium supplemented with standard supplements, including 10% fetal calf serum, gentamycin, penicillin, streptomycin, sodium pyruvate, HEPES buffer, 1-glutamine, and 2-ME.
Protocol: Cells were plated into a 12 well plate with 3 mls total volume containing approximately 1.5×10^6/well for Daudi cells and 3.0×10^6/well for Raji cells. Treatment groups included no treatment as control; MKN 3 and MKN 5 at 50 microMolar final concentration based on the reported molarity of the synthesized compounds.
The cells were incubated at 37° C. in an atmosphere containing 5% CO2 and approximately 92% humidity. The cells were incubated for 4 and 24 hours. At each time point, the cells from that experimental time were harvested and stained for flow cytometric analysis of cell surface expression of CLIP (MHC Class II invariant peptide, human) by using the commercially available (Becton/Dickinson/PHarmingen) anti-human CLIP Fitc. Catalogue #555981 versus Streptavidin.
Harvested cells were stained using standard staining procedure that called for a 1:100 dilution of Fitc-anti-human CLIP or isotype control versus 1:200 dilution of the commercially prepared Streptavidin. Following staining on ice for 25 minutes, cells were washed with PBS/FCS and resuspended in 100 microliters and added to staining tubes containing 400 microliters of PBS. Samples were acquired and analyzed on a Coulter Excel Flow Cytometer.
In the Histogram analyses of FIGS. 5-7 the Y axis represents cell number of the 5000 live cells versus the X axis which is a reflection of relative Fitc fluorescence versus Streptavidin-PE (eBioscience, Cat. #12-4317) that will bind with high affinity to cell-bound biotinylated peptides. The distance between the histogram from the isotype control staining versus the histogram reflecting the specific stain and is a measure of level of cell surface CLIP or the biotinylated peptide when stained with Streptavidin on a population of live Raji or Daudi cells as indicated.

[6] = peptide in combination with TLR 9 stimulation (CpG-ODN)

Compound: O=CC[C@@H](O)[C@H](O)[C@H](O)CO [2-Deoxyglucose]
- B cell surface CLIP (B cell surface CLIP): affects B cell surface CLIP

Compound: C=CC[C@@H]1/C=C(\C)C[C@H](C)C[C@H](OC)[C@H]2O[C@@](O)(C(=O)C(=O)N3CCCC[C@H]3C(=O)O[C@H](/C(C)=C/[C@@H]3CC[C@@H](O)[C@H](OC)C3)[C@H](C)[C@@H](O)CC1=O)[C@H](C)C[C@@H]2OC [FK506, tacrolimus]
- immunosuppressive activity relative to cyclosporin [1]: 10-100 times

Compound: CCOCc1nc2c(N)nc3ccccc3c2n1CC(C)(C)O [R848, imidazoquinoline resiquimod]
- exogenous CLIP expression on activated mouse B cells (mouse splenic B cells): resulted in exogenous CLIP expression

Compound: (S)-(2,3-bis(palmitoyloxy)-(2RS)-propyl)-N-palmitoyl-(R)-Cys-(S)-Ser(S)-Lys4-OH, trihydrochloride [Pam3Cys]
- exogenous CLIP expression on activated mouse B cells (mouse splenic B cells): resulted in exogenous CLIP expression

Compound: ANSGIIGDITEEVGGQY [VGV-pB]
- level of CLIP per B cell [2]: reduced the frequency of CLIP^+ B cells and the level of CLIP per cell in one individual but not the other
- percentage of CLIP+ B cells [2]: reduced the frequency of CLIP^+ B cells and the level of CLIP per cell in one individual but not the other

Compound: FRIMAVLAS [VGV-hB]
- reversal of CpG-ODN activation incl. percent of CLIP+ B cells from total spleen (peptide titration) (B6.129 (H-2b) mice [3]; 0.25, 2.5, 25, and 50 micrograms of peptide per mouse): reversed the effecs of CpG-ODN activation
- CD4+ FoxP3+ Tregs in the lymph nodes (B6.129 (H-2b) mice [3]; CpG-ODN injection in vivo, without or with peptide): reversible
- effect of CpG-ODN on total cell numbers, absolute numbers of B cells, and CLIP+ B cell distribution between spleen and lymph node (B6.129 (H-2b) mice [3]; CpG-ODN with peptide, 24, 72, 96 hours): reduced
- CD8+ T cells (B6.129 (H-2b) mice [3]; CpG-ODN with peptide, interpretation in discussion): promotes expansion
- B cell death (B6.129 (H-2b) mice [3]; [6]): increased B cell death
- number of live CD4+ T cells (B6.129 (H-2b) mice [3]; [6]): moderate increase
- splenic B lymphocytes and splenic CLIP+ B cells (B6.129 (H-2b) mice [4]): reversed the effects of CPG alone
- level of CLIP per B cell [2]: reduced the percentage of CLIP^+ B cells and the level of CLIP per B cell to pre-treatment levels
- percentage of CLIP+ B cells [2]: reduced the percentage of CLIP^+ B cells and the level of CLIP per B cell to pre-treatment levels

Compound: FRIMAVLASSGGGANSGFRIMAVLASGGQY [MKN.3]
- cell surface bound CLIP (Fitc-Anti-CLIP) ([5]; 4 hours): small decreases
- cell surface bound CLIP (Fitc-Anti-CLIP) ([5]; 24 hours): significant decreases

Compound: SGGGKALVQNDTLLQVKG (not fully specified (N-terminus); also: biotinylated, position not given here) [MKN.5]
- cell surface bound CLIP (Fitc-Anti-CLIP) ([5]; 4 hours): small decreases
- cell surface bound CLIP (Fitc-Anti-CLIP) ([5]; 24 hours): significant decreases

Compound: SGGGSKMRMATPLLMQALY (Biotin-SGGGSKMRMATPLLMQALY) [MKN.1]
- cell surface CLIP and CD74 levels ([5]; Raji or Daudi cells): alters cell surface CLIP and CD74 levels

Compound: lipopolysaccharide [LPS]
- exogenous CLIP associated with MHC class II on splenic B cells (mouse splenic B cells; in vitro stimulation of resting mouse splenocytes, 0 to 72 hours): time-dependent increase
- exogenous CLIP expression on activated mouse B cells (mouse splenic B cells): resulted in exogenous CLIP expression
- ectopic CLIP on human B cells ([2]; PBMC from five healthy donors, toll ligand 5 ug per ml, 24 hours): Statistically significant increases

Compound: polyinosinic:polycytidylic acid [Poly I:C]
- exogenous CLIP expression on activated mouse B cells (mouse splenic B cells): resulted in exogenous CLIP expression
